In patent publication US20230020507A1, “COMPOUND AND USE THEREOF IN TREATING AUTOIMMUNE DISEASES” (PARENCHYMA BIOTECH INC., priority 2019, published 2023):

What was measured:
[1] = system: Foxp3+ regulatory T cells; test: In vitro regulatory T cell (Foxp3+ Treg) production from human peripheral blood CD4 T cells; format: cell-based; conditions: anti-CD3/anti-CD28, TGFβ-1, IL-2, 2.5 μM, 7 days
Procedure: Human peripheral blood (AllCells) and phosphate buffered saline (PBS) were mixed in a ratio of 1:1 to prepare a mixture, followed by allowing the mixture to slowly rise so as not to be mixed into the upper layer of Histopaque (Sigma). After centrifugation at 350 g for 20 minutes, only the monocyte layer in the middle layer was collected and washed with HBSS (Hanks' Balanced Salt Solution, Gibco®). After washing with MACS buffer (Miltenyi Biotec) once more to obtain T-cells, positive selection (autoMACS seperator, Miltenyi Biotec) was performed with CD4 Microbeads (Miltenyi Biotec). The T-cells collected by the above method were prepared by resuspending the cells in RPMI-fetal bovine serum (FBS) 10%+2-ME (mercaptoethanol) medium at 5×10^5/ml. For T-cell activation, 10 μg/ml anti-CD3 (eBioscience™) was dispensed by 150 μl into a 48-well plate, reacted in a cell incubator (37° C., 5% CO2 incubator) for 3 hours, and washed with phosphate buffered saline to prepare the plate. 250 μl of resuspended T-cells was dispensed onto the prepared plate, and each well was treated with 2 μg/ml of anti-CD28 (eBioscience™), 5 ng/ml of TGFβ-1 (R&D systems), and 50 U/ml of IL-2 (Miltenyi Biotec). Each 5 μl of compounds at a concentration of 2.5 μM diluted in RPMI+2ME medium was used for treatment, followed by culturing the same in a cell incubator (37° C., 5% CO2 incubator) for 7 days. As a control, 5 μl of 0.05% dimethylsulfoxide (DMSO)/RPMI medium was used for treatment. After 7 days, in order to confirm effects of producing regulatory T cells, the cultured cells were recovered to determine the presence of Foxp3 protein.
The recovered cells were placed in a 5 ml FACS tube (BD Falcon) and washed with 1 ml of phosphate buffered saline. The cells were resuspended in 0.1 ml of FACS buffer (0.1% NaN3, 1% FBS) and treated with 1 μg of human immunoglobulin G (Human IgG, Sigma) to prevent non-specific binding of the antibody. After reacting at 4° C. for 15 minutes, the cells were washed with FACS buffer. Then, 1 ml of Fixation/Permeabilization solution (eBioscience™) was added to the FACS tube containing each sample, followed by reaction at 4° C. for 1 hour. Thereafter, the product was washed twice with a Permeabilization buffer (eBioscience™). Then, 0.25 μg of Foxp3 monoclonal antibody (eBioscience™) was used for treatment, followed by staining the sample for 4 to 30 minutes. The cells were washed twice with the permeabilization buffer, suspended in 0.3 ml of FACS buffer, and measured by flow cytometry.

[2] = system: IFN-γ, IL-17A, IL-1β, IL-10 and Foxp3 expression in spinal cord lesions; test: mRNA expression of inflammatory and immunomodulatory factors in spinal cord of EAE mice (real-time PCR); format: in vivo, mouse; conditions: 20 mg/kg i.p., 42nd day, compared to solvent control
Text: On the 42nd day of the experiment, the spinal cord of the mouse was excised to prepare an mRNA sample. In order to extract mRNA, the spinal cord tissue was ground with a homogenizer to obtain a homogeneous suspension. […] Then, cDNA was synthesized from the isolated RNA by reverse transcription, and the expression of inflammatory cytokines was investigated through real-time polymerase chain reaction (PCR) using iQ SYBR-Green Supermix (Bio-rad) in the CFX96 (Bio-rad) detection system. Relative values of the enzyme expression levels were compared by the ΔΔct method using GAPDH as a control enzyme. Herein, one (1) fold was set using the WT mouse spinal cord as a control.
The real-time polymerase chain reaction was implemented under the conditions of cycles at an annealing temperature of 58° C., and the following primer sequences were used.

[3] = system: IL-1β, IL-6, IL-17A, TNF-α, IL-10 and Foxp3 expression in colon lesions; test: mRNA expression of inflammatory and immunomodulatory factors in colon of DSS mice (real-time PCR); format: in vivo, mouse; conditions: 20 mg/kg oral, 15th day, compared to solvent control
Text: On the 15th day of the experiment, the colon of the mouse was excised to prepare an mRNA sample. In order to extract mRNA, the colon tissue was ground with a homogenizer to acquire a homogeneous suspension. […] From the isolated RNA, cDNA was synthesized by reverse transcription followed by confirming the expression of inflammatory cytokines through real-time polymerase chain reaction (PCR) using iQ SYBR-Green Supermix (Bio-rad) in the CFX96 (Bio-rad) detection system. Relative values of the enzyme expression levels were compared by the ΔΔct method using GAPDH as a control enzyme. Herein, one (1) fold was set using the normal mouse colon as a control.
The real-time polymerase chain reaction was implemented under the conditions of cycles at an annealing temperature of 58′° C. and the following primer sequences were used.

[4] = system: C57BL/6 mice with DSS-induced inflammatory bowel disease; test: DSS-induced inflammatory bowel disease model, severity index and colon weight:length ratio; format: in vivo, mouse; conditions: 20 mg/kg oral daily, compared to solvent control; for inflammatory bowel disease severity index: 2nd to 11th day, 10th day of the experiment; for colon weight:length ratio (intestinal inflammation): 15th day of the experiment
Procedure: The 1.5% DSS solution was changed at an interval of 2 days. Sterile distilled water was provided for drinking from the 8th day of the experiment. Body weight and severity index were measured at an interval of 2 days from the 0th day of the experiment in order to confirm the onset of inflammatory bowel disease.
20 mg/kg of the compound per mouse was completely dissolved in DMSO corresponding to 10% (v/v) of the administered dose, and then diluted in a cremophor EL-phosphate buffered saline mixture in order to produce the final DMSO:Cremophor EL:phosphate buffered saline (1:1:8, v/v/v), followed by oral administration of 200 μl daily for a total of 10 times from the 2nd to 11th days of the experiment. An inflammatory bowel disease severity index was visually observed and recorded at an interval of 2 days according to a severity index system classified into 0 to 10 levels.
Inflammatory bowel disease symptoms were evaluated by summing the scores of three items according to the following items (Table 3).

[5] = system: C57BL/6 mice with autoimmune encephalomyelitis (EAE); test: Experimental autoimmune encephalomyelitis (EAE) model of multiple sclerosis, severity index; format: in vivo, mouse; conditions: 20 mg/kg intraperitoneally daily 12th to 17th day
Procedure: On day 0, myelin oligodendrocyte glycoproteins 35-55 (MOG 35-55, Peptron) (200 μg), heat-killed Mycobacterium tuberculosis (Difco, Cat No. 231141) (500 μg), and adjuvant (Complete Freund's adjuvant, Sigma Aldrich, Cat No. F5506) were mixed together and then submerged for 7 minutes. After subcutaneous injection of 100 μl of the submerged peptide into both flanks of each of C57BL/6 mice (7 weeks old, female, 17±2 g), 100 μl of pertussis toxin (Sigma Aldrich. Cat No. P2980) (200 ng) was administered intravenously to the tail.
On the 2nd day of the experiment, the same amount of pertussis toxin was administered intravenously. The mice were checked for immersion leaking from the injected site, and visually observed from the 7th day of the experiment in order to confirm the onset of multiple sclerosis.
The multiple sclerosis index was visually observed and recorded at an interval of 2 days from the 7th day of the experiment in the severity index system classified into 0-5 stages, and autoimmune encephalomyelitis symptoms were indexed according to the following items (see Table 4).

[6] = scale 0-5, solvent control 3.33±0.17

| Compound | generation of Foxp3+ regulatory T cells [1] | inflammatory bowel disease severity index [4] | colon weight:length ratio (intestinal inflammation) [4] | other results |
| --- | --- | --- | --- | --- |
| Cc1nc(NC(=O)Cc2c[nH]c3ccc(F)cc23)ccc1Br [Compound 2, N-(5-bromo-6-methylpyridin-2-yl)-2-(5-fluoro-1H-indol-3-yl)acetamide] | promoted | – | – | – |
| Cc1nc(NC(=O)Cc2c[nH]c3ccccc23)ccc1Br [Compound 5, N-(5-bromo-6-methylpyridin-2-yl)-2-(1H-indol-3-yl)acetamide] | promoted | – | – | – |
| Cc1nc(NC(=O)Cc2c[nH]c3ccc(Cl)cc23)ccc1Br [Compound 8, N-(5-bromo-6-methylpyridin-2-yl)-2-(5-chloro-1H-indol-3-yl)acetamide] | promoted | statistically significant therapeutic effects | significantly suppressed | expression level of Foxp3 in spinal cord lesions [2]: significantly increased; expression level of IFN-γ in the spinal cord lesion [2]: significantly reduced; expression level of IL-1β in the spinal cord lesion [2]: significantly reduced; expression level of IL-10 in spinal cord lesions [2]: significantly increased; expression level of IL-17A in the spinal cord lesion [2]: significantly reduced; expression level of Foxp3 in the colon lesion [3]: significantly increased; expression level of IL-1β in colon lesions [3]: significantly reduced; expression level of IL-6 in colon lesions [3]: significantly reduced; expression level of IL-10 in the colon lesion [3]: significantly increased; expression level of IL-17A in colon lesions [3]: significantly reduced; expression level of TNF-α in colon lesions [3]: significantly reduced; treatment effects on EAE severity index compared to solvent control from the 16th day, maintained after administration was stopped [5]: statistically significant treatment effects; severity index (EAE), 18th day, acute reaction period [5, 6]: 1.17±0.56; severity index (EAE), 36th day, chronic reaction period [5, 6]: 1.17±0.56 |
| O=C(Cc1c[nH]c2ccccc12)Nc1ccc(Cl)c(F)n1 [Compound 23, N-(5-chloro-6-fluoropyridin-2-yl)-2-(1H-indol-3-yl)acetamide] | promoted | – | – | – |
| CN(C(=O)Cc1c[nH]c2ccccc12)c1nc2ccccc2s1 [Compound 44, N-(benzo[di]thiazol-2-yl)-2-(1H-indol-3-yl)-N-methyl acetamide] | promoted | statistically significant therapeutic effects | significantly suppressed | – |
| CN(C(=O)Cc1c[nH]c2ccc(Cl)cc12)c1nc2ccccc2s1 [Compound 47] | promoted | – | – | – |
| CN(C(=O)Cc1c[nH]c2ccc(F)cc12)c1nc2ccccc2s1 [Compound 60, N-(benzo[di]thiazol-2-yl)-2-(5-fluoro-1H-indol-3-yl)-N-methyl acetamide] | – | statistically significant therapeutic effects | significantly suppressed | – |
| COc1cc(NC(=O)Cc2c[nH]c3ccccc23)cc(OC)c1OC [Compound 71, 2-(1H-indol-3-yl)-N-(3,4,5-trimethoxyphenyl)acetamide] | promoted | – | – | – |
| O=C(Cc1c[nH]c2ccccc12)Nc1cc(Cl)cc(Cl)c1 [Compound 81, N-(3,5-dichlorophenyl)-2-(1H-indol-3-yl)acetamide] | promoted | – | – | – |
